Read-outs that look alike come from different tables or passages of the source.
How the values were obtained:
[1] = neurologic toxicity (Tox), rat po; assay type: in vivo; details: in vivo, time in hours in brackets
[2] = test system: maximal electroshock (MES)-induced seizures; assay: maximal electroshock seizure (MES) test, rat po; details: for ED50: Rattus norvegicus, po
[3] = neurologic toxicity (Tox), rotorod test, mice ip; details: mouse, in vivo, ip, Tox, TD50, Mice (ip); time in hours in second brackets; [x; y] = between doses x and y
[4] = test system: bi-phasic licking response; assay: formalin test (0.5% formalin into hind paw, bi-phasic licking response); assay type: in vivo, mouse; details: dose 16.0 (CH2C≡CH/H), 8.0 (CH3/N3), 20.0 (CH2C≡CH/N3) mg/kg
Method: Compounds of the present invention were active in treating pain in a formalin test carried out in accordance with standard techniques, as described in S. Hunskaar et al., J. Neurosci. Methods 14: 69-76 (1985). Briefly, 0.5% formalin is injected into the mouse hind paw to elicit a bi-phasic licking response, where the first acute phase is thought to correspond to the direct stimulation of peripheral fibers and the second (inflammatory) phase is caused by the release of inflammatory mediators.

[5] = test system: maximal electroshock (MES)-induced seizures; assay: maximal electroshock seizure (MES) test, mice ip; details: for ED50: Mus musculus, ip
From the text: The structure-activity relationship of functionalized amino acids (1).

[6] = test system: maximal electroshock (MES)-induced seizures; details: rat, in vivo, po
[7] = test system: neurologic toxicity; assay: neurologic toxicity (Tox), rat po; assay type: in vivo; details: for TD50: in vivo
[8] = test system: neurologic toxicity; assay: neurologic toxicity (Tox), rotorod test, mice ip; details: mouse, in vivo, ip, Tox, TD50, Mice (ip)
[9] = read-out: MES, ED50, Rat (po), time in hours in brackets
[10] = read-out: MES, ED50, Rat (po), time of peak effect in hours in brackets in the cell
[11] = read-out: MES, ED50, Mice (ip), time in hours in second brackets, [x, y] = between doses x and y
[12] = read-out: MES, ED50, Mice (ip), time of peak effect in hours in brackets in the cell

C#CCOC[C@@H](NC(C)=O)C(=O)NCc1ccc(N=C=S)cc1 [(R)-9]
TD50 [1]: > 30 mg/kg
ED50 [2, 9]: > 30 mg/kg
ED50 [2, 10]: > 30 mg/kg
TD50 [3]: 68 mg/kg

C#CCOC[C@@H](NC(C)=O)C(=O)NCc1ccc(N=[N+]=[N-])cc1 [(R)-8, (R)-N-(4-Azidobenzyl)-2-acetamido-3-(prop-2-ynyloxy)propanamide]
Area Under the Curve, % of Control ([4]; Acute phase): 58.28%
Area Under the Curve, Drug Tested ([4]; Acute phase): 119.9
Area Under the Curve, % of Control ([4]; Inflammatory phase): 78.17%
Area Under the Curve, Drug Tested ([4]; Inflammatory phase): 414.3

CC(=O)NC(C(=O)NCc1ccccc1)c1ccccc1 (racemic) [(R,S)-6]
ED50 ([5]; read-out: MES ED50): 32 mg/kg
ED50 ([5]; read-out: MES, ED50): 32 mg/kg

CCCC(CCC)C(=O)O [valproate]
PI ([5]; Mice (ip), PI = TD50/ED50): 1.6
PI ([5]; Mice (ip), protective index (TD50/ED50)): 1.6
MES, ED50 ([5]; Mice (ip), time in hours in second brackets, [x, y] = between doses x and y): 270 [0.25] mg/kg
ED50 ([5]; read-out: MES, ED50): 270 mg/kg
PI [6]: 0.6
MES, ED50 ([2]; Rat (po), time in hours in brackets): 490 [0.5] mg/kg
ED50 ([2]; read-out: MES, ED50): 490 mg/kg

CCOCC(NC(C)=O)C(=O)NCc1ccccc1 (racemic) [(R,S)-10]
ED50 ([5]; read-out: MES ED50, values of the running text, mice (ip)): 17 mg/kg

COC[C@@H](NC(C)=O)C(=O)NCc1ccc(C(F)(F)F)cc1 [(R)-10]
PI ([5]; Mice (ip), PI = TD50/ED50): ∼3.1
ED50 [5, 11]: 30 to 100 mg/kg
TD50 [1]: > 30 mg/kg
ED50 [2, 9]: < 30 mg/kg
TD50 [3]: 100 to 300 mg/kg

C#CCOC[C@@H](NC(C)=O)C(=O)NCc1ccccc1 [(R)-7]
ED50 [5, 11]: 10 to 30 mg/kg
ED50 [5, 12]: 16 mg/kg
TD50 [1]: > 500 mg/kg
ED50 [2, 9]: 16 mg/kg
ED50 [2, 10]: 8 mg/kg
TD50 [3]: 30 to 100 mg/kg

C#CCOC[C@@H](NC(C)=O)C(=O)NCc1ccccc1 [(R)-7, (R)-N-Benzyl-2-acetamido-3-(prop-2-ynyloxy)propanamide]
Area Under the Curve, % of Control ([4]; Acute phase): 48.42%
Area Under the Curve, Drug Tested ([4]; Acute phase): 142.9
Area Under the Curve, % of Control ([4]; Inflammatory phase): 54.99%
Area Under the Curve, Drug Tested ([4]; Inflammatory phase): 468.3

COC[C@@H](NC(C)=O)C(=O)NCc1ccc(N=[N+]=[N-])cc1 [(R)-5, (R)-N-(4-Azidobenzyl)-2-acetamido-3-methoxypropanamide, reference compound]
TD50 ([7]; time in hours in brackets): > 250 mg/kg
Area Under the Curve, % of Control ([4]; Acute phase): 58.67%
Area Under the Curve, Drug Tested ([4]; Acute phase): 131.4
Area Under the Curve, % of Control ([4]; Inflammatory phase): 106.22%
Area Under the Curve, Drug Tested ([4]; Inflammatory phase): 694.5
PI ([2]; Rat (po), PI = TD50/ED50): > 64
ED50 [2, 9]: 3.9 mg/kg
TD50 ([8]; time in hours in second brackets, [x, y] = between doses x and y): 46.2 mg/kg

C#CCOC[C@H](NC(C)=O)C(=O)NCc1ccccc1 [(S)-7, (S)-N-Benzyl-2-acetamido-3-(prop-2-ynyloxy)propanamide]
ED50 [5, 12]: > 300 mg/kg
TD50 ([7]; time in hours in brackets in the cell): > 30 mg/kg
ED50 [2, 10]: > 30 mg/kg
TD50 ([8]; rotorod test, time of peak effect in hours in brackets in the cell): > 300 mg/kg

CC(=O)N[C@H](C(=O)NCc1ccccc1)c1ccccc1 [(S)-6]
ED50 ([5]; read-out: MES, ED50): > 300 mg/kg

COC[C@@H](NC(C)=O)C(=O)NCc1ccc(COc2cccc(F)c2)cc1 [(R)-11]
PI ([5]; Mice (ip), PI = TD50/ED50): ∼2.8
ED50 [5, 11]: 3 to 10 mg/kg
Tox, TD50 ([7]; time in hours in brackets): > 30 [0.25 to 4.0] mg/kg
ED50 [2, 9]: < 30 mg/kg
TD50 [3]: 10 to 30 mg/kg

From patent publication EP2262764B1, “NOVEL N-BENZYLAMIDE SUBSTITUTED DERIVATIVES OF 2-(ACYLAMIDO)ACETIC ACID AND 2-(ACYLAMIDO)PROPIONIC ACIDS: POTENT NEUROLOGICAL AGENTS” (The University of North Carolina At Chapel Hill, priority 2008, dated 2009)
